Laboratory results: US20230324368A1, “Systems, Devices And Methods For Cell Analysis Using ChemFET Sensor Arrays” (Life Technologies Corporation, priority 2020, published 2023)

Columns and labels:
[1] = test system: HEPG2 cells; test: Label-free metabolic profiling (glucose restriction / glucose reintroduction) on ChemFET sensor array, HEPG2 cells; assay type: cell-based, human
Description: FIG. 18A through FIG. 18B are graphs of data collected during metabolic profiling studies using HEPG2 cells (ATCC-HB-8065), while FIG. 19A and FIG. 19B are graphs of data collected during metabolic profiling studies using A673 cells (ECACC 85111504). FIG. 18A through FIG. 18B are temporal response graphs of counts equivalent to protons (CEP) in microvolts (μV) versus time. As will be described in more detail herein, the pharmacological dissection of metabolic profiling can be performed to understand the contribution of oxidative metabolism and glycolytic metabolism to metabolic profiling. Accordingly, chemical agents, such as oligomycin, antimycin A, rotenone and metformin can used to understand a contribution of oxidative metabolism to cellular response in a metabolic profiling study, while chemical agents, such as 2-deoxy-D-glucose, koningic acid, fasentin, and AM2394 can used to understand a contribution of glycolytic metabolism to cellular response in a metabolic profiling study.
The chip devices used in the studies were ISFET chip devices selective for sensing hydrogen ions, and were chip devices such as chip device 1 of 1 of Table 1. Given that the analyses performed were for metabolic profiling, chip devices with microwells were selected as depicted for chip device 500B of FIG. 5C. […]
(§1) Prior to seeding the devices with cells, each chip device in open format, such as open format chip device 500 of FIG. 2, and were soaked for 30 minutes with 70% ethanol in water, then rinsed with PBS and then rinsed twice with 1.5 mL of a cell culture medium, for example, Dulbecco's Modified […] Medium (DMEM; Gibco™ catalog #11995-065), Minimal Essential Medium (MEM; Gibco™ catalog #11095-080) or McCoy's 5A modified medium (Gibco™ catalog #12330-031). […] After rinsing with the cell culture medium, the devices were ready for addition to each device of a suspension of cells at a density between 5,000 to 30,000 cells in 1 to 1.5 mL of a cell culture medium, pH 7.4. […]

[2] = test system: HEPG2 cells; settings: FCCP 100 μM; ISFET chip device 2 with microwells; not all cells showed efflux
Procedure: A sensor array device of the present disclosure, such as sensor array device 500 of FIG. 2, has an open structure, thereby allowing the HEPG2 cells to be cultured on the sensor surface in ^˜1 mL of cell culture media. The device was sterilized with 70% Ethanol in water, rinsed and prepared with 100 μg/mL poly-D-lysine in phosphate buffered saline prior to adding cells to facilitate cell adhesion to a chip device surface as depicted in FIG. 5B.
For plating on the sensor array device, the HEPG2 cells were harvested from culture, resuspended at 2.5×10^5 cells per mL in complete cell culture medium (composed of Minimum Essential Medium, MEM, Thermo Fisher Scientific catalog number 11095080) plus 10% Fetal Calf Serum (FCS, Thermo Fisher Scientific Catalog number A3160401) and plated onto the sensor array device for overnight incubation in a cell culture incubator under standard conditions at 37° C. with 95% humidity and 5% carbon dioxide in room air atmosphere. […] Cells were then allowed to adhere to the prepared surface of the sensor array device and grow overnight or longer before microscopic analysis of morphology and qualitative assessment of viability. […]

[3] = test system: A673 cells; test: Control microscopy with calcein acetoxymethyl (AM) ester live-cell indicator, A673 cells; assay type: cell-based; settings: 5 μM koningic acid treated cells, after experiment of FIG. 19B
Procedure: (§2) After completion of each experiment represented by FIG. 18A and FIG. 18B for the HEPG2 cells, and by FIG. 19A and FIG. 19B for the A673 cells, control microscopy studies using calcein acetoxymethyl (AM) ester, a known fluorescent indicator of live cells, were performed. […] These control microscopy studies confirmed that what was observed using the ChemFET-based cell analysis system to perform the studies represented by FIG. 18A through FIG. 19B for both HEPG2 and A673 cells were observed using live cells.

[4] = test system: A673 cells; test: Label-free metabolic profiling (glucose restriction / glucose reintroduction) on ChemFET sensor array, A673 cells; assay type: cell-based; settings: 5 μM koningic acid pretreatment during glucose restriction; 5 mM glucose reintroduction; FIG. 19A/19B
Description: FIG. 18A through FIG. 18B are graphs of data collected during metabolic profiling studies using HEPG2 cells (ATCC-HB-8065), while FIG. 19A and FIG. 19B are graphs of data collected during metabolic profiling studies using A673 cells (ECACC 85111504). FIG. 18A through FIG. 18B are temporal response graphs of counts equivalent to protons (CEP) in microvolts (μV) versus time. As will be described in more detail herein, the pharmacological dissection of metabolic profiling can be performed to understand the contribution of oxidative metabolism and glycolytic metabolism to metabolic profiling. […]
as §1

[5] = test system: HEPG2 cells; test: Control microscopy with calcein acetoxymethyl (AM) ester live-cell indicator, HEPG2 cells; assay type: cell-based, human; settings: 5 μM koningic acid treated cells, after experiment of FIG. 18B
Procedure: as §2

O=CC[C@@H](O)[C@H](O)[C@H](O)CO [2-deoxy-D-glucose]
averaged temporal response, counts equivalent to protons (CEP) versus time ([1]; 50 mM 2-deoxy-D-glucose introduced at 371 seconds after oligomycin, control without koningic acid, FIG. 18A): attenuated

N#CC(C#N)=NNc1ccc(OC(F)(F)F)cc1 [FCCP, carbonyl cyanide-4-(trifluoromethoxy) phenylhydrazone]
cellular response observed in electroscopic image [2]: efflux of cellular contents

CC(C)[C@H]1CC[C@@]2(CO2)[C@H]2C(=O)OCC(C(=O)O)=C[C@H]12 [koningic acid]
acute toxicity, calcein staining profile versus control vehicle treated cultures [3]: no acute toxicity
averaged temporal response (CEP) to glucose reintroduction with and without koningic acid [4]: comparable to the results using HEPG2 cells
averaged temporal response, counts equivalent to protons (CEP) versus time ([1]; 5 μM koningic acid pretreatment during glucose restriction, two to three hours, then glucose, oligomycin, 2-deoxy-D-glucose, FIG. 18B): no change in the averaged signal
acute toxicity, calcein staining profile versus control vehicle treated cultures [5]: no acute toxicity

CC[C@H]1/C=C/C=C/C[C@@H](C)[C@H](O)[C@@](C)(O)C(=O)[C@@H](C)[C@H](O)[C@@H](C)C(=O)[C@@H](C)[C@H](O)[C@@H](C)/C=C/C(=O)O[C@@H]2[C@H](C)[C@H](CC1)O[C@]1(CC[C@H](C)[C@H](C[C@@H](C)O)O1)[C@H]2C [oligomycin]
averaged temporal response, counts equivalent to protons (CEP) versus time ([1]; 1 μM oligomycin introduced at 295 seconds after glucose, control without koningic acid, FIG. 18A): potentiated
